Measurements as given in patent US11903959B2 (EMORY UNIVERSITY, priority 2017, dated 2024).
Where “and” joins values, the source holds several entries; their conditions need not be identical. Equal entries are not always repeated. Where two headings read alike, the source gives them in different places.

What was measured:
Maporal virus = experiment: microbe, parasite or virus in culture; type: cell-based
RVFV = experiment: microbe, parasite or virus in culture; type: cell-based; settings: Rift Valley fever virus, Vero
[1] = system: pestivirus and hepacivirus; settings: Stuyver et al., Antimicrob Agents Chemother, 2003; cited from earlier work
[2] = Cytotoxicity (CC50) run with antiviral assays, HeLa-Ohio cells; settings: human
RSV = experiment: microbe, parasite or virus in culture; type: cell-based, respiratory syncytial virus
[3] = Plasma pharmacokinetics in dogs after a single dose of EIDD-2800; settings: dog, 140 mg/kg
WNV = experiment: microbe, parasite or virus in culture; type: cell-based; settings: West Nile virus, Vero 76
POWV = experiment: microbe, parasite or virus in culture; type: cell-based; settings: Powassan virus, BHK, BHK cells
[4] = mouse, in vivo
EBOV = experiment: microbe, parasite or virus in culture; type: cell-based, Ebola virus; settings: Zaire ebolavirus, Vero
Flu B = experiment: microbe, parasite or virus in culture; type: cell-based; settings: Influenza B virus, MDCK
ZIKV = experiment: microbe, parasite or virus in culture; type: cell-based; settings: Zika virus, Vero 76
[5] = cynomolgus monkey, in vivo, po; for AUC0->24 h / CL / Cmax / t1/2 / tmax: 0.4 mmol/kg
CEM cells = type: cell-based; settings: CEM cells (lowest of the range)
Flu A H7N9 (High Path) = experiment: microbe, parasite or virus in culture; type: cell-based; settings: Influenza A virus, H7N9, MDCK, MDCK cells
HCoV = experiment: microbe, parasite or virus in culture; type: cell-based; settings: unidentified human coronavirus, Vero C1008
[6] = Plasma pharmacokinetics in mice after a single dose of EIDD-2800; settings: ICR (CD-1), mouse, oral, 180 mg/kg
Flu A H5N1 (Low Path) = experiment: microbe, parasite or virus in culture; type: cell-based; settings: Influenza A virus, H5N1, MDCK
[7] = Cytotoxicity (CC50) run with antiviral assays, HG23 cells; settings: human
CHIKV = experiment: microbe, parasite or virus in culture; type: cell-based, Chikungunya virus
in vivo [8] = settings: ICR (CD-1), mouse, 180 mg/kg
[9] = rat, in vivo, po, 50 mg/kg
in vivo [10] = settings: dog, 140 mg/kg
[11] = female, DBA-1J, mouse, in vivo
Enterovirus-68 = type: cell-based
Pichinde virus = experiment: microbe, parasite or virus in culture; type: cell-based; settings: Vero, Vero cells
WEEV = experiment: microbe, parasite or virus in culture; type: cell-based; settings: Western equine encephalitis virus
[12] = system: Lymphocytic choriomeningitis virus; experiment: microbe, parasite or virus in culture; type: cell-based; settings: Mammarenavirus choriomeningitidis, Vero
VEEV = experiment: microbe, parasite or virus in culture; type: cell-based; settings: Venezuelan equine encephalitis virus
NV = experiment: microbe, parasite or virus in culture; type: cell-based; settings: Norovirus, HG23
DENV2 = experiment: microbe, parasite or virus in culture; type: cell-based; settings: Dengue virus
YFV = experiment: microbe, parasite or virus in culture; type: cell-based; settings: Yellow fever virus, Vero 76

O=c1nc(NO)ccn1C1OC(CO)C(O)C1O (stereo not shown) [EIDD-1931, 1-(3,4-dihydroxy-5-(hydroxymethyl)tetrahydrofuran-2-yl)-4-(hydroxyamino)pyrimidin-2-one]
EC50 (Maporal virus): > 124 µM
EC50 (Maporal virus; Maporal virus, Vero 76): 84 µM
EC90 (RVFV): 1 µM
EC50 (RVFV; RVFV, Vero cells): 1.68 µM
antiviral activities [1]: antipestivirus and antihepacivirus activities
CC50 [2]: > 40 µM
EC50 (RSV): 27.6 µM
EC50 (RSV; human respiratory syncytial virus, MA104): 14 µM
AUC(0-inf) [3]: 498 ± 40.4 µM·h
tmax [3]: 1.4 ± 0.5 h
EC50 (WNV): > 400 µM
EC50 (POWV): 11.2 µM
body weight [4]: weight loss was observed
EC50 (EBOV): 4.7 µM
EC90 (EBOV): 25 µM
EC50 (Flu B): < 0.4 µM
EC90 (ZIKV): 2.36 µM
bioavailability [5]: low bioavailability
F ([5]; female): ~3%
AUC0->24 h ([5]; female): 7.21 ± 4.21 µM·h
CL ([5]; female): 1100 ± 527 mL/min/kg
Cmax ([5]; female): 3.31 ± 1.99 µM
t1/2 ([5]; female): 0.78 ± 0.2 h
tmax ([5]; female): 0.87 ± 0.75 h
AUC0->24 h ([5]; male): 5.75 ± 1.99 µM·h
CL ([5]; male): 1170 ± 312 mL/min/kg
Cmax ([5]; male): 3.31 ± 1.82 µM
t1/2 ([5]; male): 1.2 ± 1.2 h
tmax ([5]; male): 0.75 ± 0.28 h
selectivity index (CEM cells): 8
EC50 (Flu A H7N9 (High Path)): > 48 µM
EC50 (HCoV): < 0.4 µM
AUC(0-inf) [6]: 42.5 µM·h
Cmax [6]: 11.4 µM
tmax [6]: 0.5 h
EC50 (Flu A H5N1 (Low Path)): 1.28 µM
CC50 [7]: > 100 µM
EC50 (CHIKV): 1.8 µM
EC50 (CHIKV; Chikungunya virus, Vero): 1.28 µM
half-life (in vivo [8]): 1.86 h
calculated bioavailability (% F) ([9]; male, Sprague-Dawley (SD)): 28%
tissue distribution [9]: well distributed into all tissues tested
Cmax (in vivo [10]): 113 ± 21.1 µM
half-life (in vivo [10]): 4.8 ± 1 h
Bioavailability (versus i.p. delivery) [11]: 39-46%
Bioavailability (versus i.p. delivery) ([11]; 30 mg/kg): 65%
plasma T1/2 ([11]; iv): 2.2 h
EC50 (Enterovirus-68): 1.28 µM and 1.16 µM
EC50 (Pichinde virus): 18.4 µM
EC90 (WEEV; Vero 76): < 1.28 µM
EC50 (WEEV; Vero 76, WEEV, Vero76 cells): 1.28 µM
EC50 (WEEV; Vero, WEE virus, Vero cell cytopathic effect (CPE) model): 1.36 µM
EC90 [12]: 25.2 µM
EC90 (VEEV; Vero 76): 0.8 µM
EC50 (VEEV; Vero 76, VEEV, Vero76 cells): 1.28 µM
EC50 (VEEV; Vero, VEE virus, Vero cell cytopathic effect (CPE) model): 1 µM
EC50 (NV): > 100 µM
EC90 (NV): > 100 µM
EC50 (DENV2; DENV2, Vero 76): 14 µM
EC50 (DENV2; DENV2, Vero 76, DENV2, Vero76 cells): 12.8 µM
EC90 (YFV): 26 µM
